In patent publication US20220296615A1, “COMBINATION PRODUCT CONTAINING LIMONOID COMPOUND AND SULFONYLUREA COMPOUND” (ZHEJIANG YANGSHENGTANG INSTITUTE OF NATURAL MEDICATION CO., …, priority 2019, published 2022):

Tests used:
Assay type in all cases: in vivo
[1] = tested on: STZ mice (mouse pancreatic islet β-cell injury model); assay: Blood glucose in mouse pancreatic islet β-cell injury model (STZ), limonoid compound, glibenclamide or combination; conditions: STZ ICR mice, single administration 0.02 g/kg per day by gavage, two weeks, 1 h after last administration; model group 29.5 ± 4.6, normal 7.5 ± 0.6
From the text: The limonoid compound was selected from the group consisting of limonin, isolimonic acid, limonin glycoside, and isolimonic acid glycoside, and glibenclamide single administration group, limonin single administration group, isolimonic acid single administration group, limonin glycoside singe administration group, isolimonic acid glycoside singe administration group, and respective combination thereof with glibenclamide administration groups were set. Conditions of experimental feeding: ICR mice (20±2 g), aged 6 weeks, purchased from Zhejiang Academy of Medical Sciences, and subjected to experimental feeding after 7 days of preliminary feeding. It should be noted that the conditions for raising the mice were as follows: the temperature was 23±1° C., the humidity was 55±10%, the lights were turned on between 7 am and 7 pm (the lights were turned off at other time), and the mice were allowed to freely take in water and feed. The experimental feed was mouse growth-stable feed (GB […]), and the daily feeding and management of the animals were under the responsibility of the animal security department, which provided the animals with sufficient diet and fresh drinking water daily. […] The data were expressed as mean and standard deviation. The data before and after were analyzed by t-test, and P<0.05 was considered statistically significant.

db/db mice [2] = assay: Blood glucose and leptin in mouse type II diabetes model, limonoid compound, gliclazide or combination; conditions: single administration 0.04 g/kg per day by gavage, two weeks, 1 h after last administration, model group 23.9 ± 4.2, normal 6.0 ± 0.7
From the text: In the present example, db/db mice (line name BKS.Cg-Dock7^m+/+Lepr^db/Nju) were used to perform hypoglycemic efficacy evaluation test of animals (blood glucose level and leptin). The limonoid compound was selected from obacunone, isoobacunoic acid and obacunone glycoside, and gliclazide single administration group, obacunone single administration group, isoobacunoic acid single administration group, obacunone glycoside single administered group, and respective combination thereof with gliclazide administration groups were set. Conditions for experimental feeding: as type II diabetes model mice, 6-week-old SPF-grade db/db mice were purchased from the Nanjing Model Biology Institute, and subjected to experimental feeding after 7 days of preliminary feeding. It should be noted that the conditions for raising the mice were as follows: the temperature was 23±1° C., the humidity was 55±10%, the lights were turned on between 7 am and 7 pm (the lights were turned off at other time), and the mice were allowed to freely take in water and feed. […] The data were expressed as mean and standard deviation. The data before and after were analyzed by t-test, and P<0.05 was considered statistically significant.

[3] = tested on: STZ mice (type II diabetes with pancreatic islet damage and obesity); assay: Blood glucose in mouse type II diabetes model with pancreatic islet damage and obesity (STZ + high-fat diet), limonoid compound, glimepiride or combination; conditions: STZ + high-fat diet ICR mice, single administration 0.5 g/kg per day by gavage, two weeks, 1 h after last administration; model group 29.6 ± 6.0, normal 5.9 ± 0.54
From the text: In this example, a mouse model of type II diabetes with pancreatic islet damage and obesity was established by multiple modeling ICR mice with a small dose of streptozotocin (STZ), following with continuous high-fat diets (referring to literature: […] Conditions of experimental feeding: ICR mice (20±2 g), aged 6 weeks, purchased from Zhejiang Academy of Medical Sciences, and subjected to experimental feeding after 7 days of preliminary feeding. It should be noted that the conditions for raising the mice were as follows: the temperature was 23±1° C., the humidity was 55±10%, the lights were turned on between 7 am and 7 pm (the lights were turned off at other time), and the mice were allowed to freely take in water and feed. The experimental feed was mouse growth-stable feed (GB […]), and the daily feeding and management of the animals were under the responsibility of the animal security department, which provided the animals with sufficient diet and fresh drinking water daily. […] The data were expressed as mean and standard deviation. The data before and after were analyzed by t-test, and P<0.05 was considered statistically significant.

[4] = tested on: STZ mice (mouse pancreatic islet β-cell injury model); assay: Blood glucose in mouse pancreatic islet β-cell injury model (STZ), limonoid compound, glipizide or combination; conditions: STZ ICR mice, single administration 0.1 g/kg per day by gavage, two weeks, 1 h after last administration; model group 29.5 ± 4.6, normal 7.5 ± 0.6
From the text: In this example, a mouse pancreatic islet β-cell injury model was established by modeling ICR mice with streptozotocin (STZ) (Li Nan et al., Protective effect of pine pollen on kidney damage in diabetic nephropathy mice, Science and Technology Review, 2014, 32 (4/5): 95-99), and used to complete the evaluation of hypoglycemic effect in animals (this model could simulate pancreatic islet β-cell damage state of type I and type II diabetics). […]
Gavage doses: the gavage dose was 0.1 g/kg per day for the ichangin group, the gavage dose was 0.1 g/kg per day for the ichangensin group, the gavage dose was 0.1 g/kg per day for the ichangin glycoside group, the gavage dose of glipizide was 0.1 g/kg per day for the glipizide group, ichangin at a dose of 0.05 g/kg and glipizide at a dose of 0.05 g/kg were simultaneously gavaged per day for the ichangin/glipizide combination group, ichangensin at a dose of 0.05 g/kg and glipizide at a dose of 0.05 g/kg were simultaneously gavaged per day for the ichangensin/glipizide combination group, ichangin glycoside at a dose of 0.05 g/kg and glipizide at a dose of 0.05 g/kg were simultaneously gavaged per day for the ichangin glycoside/glipizide combination group, the gavage volume was 10 mL/kg, and the normal group and the model group were administrated with 10 mL/kg of distilled water. […] The data were expressed as mean and standard deviation. […]

db/db mice [5] = assay: Blood glucose and insulin in mouse type II diabetes model, limonoid compound, gliquidone or combination; conditions: single administration 0.2 g/kg per day by gavage, two weeks
From the text: In the present embodiment, the limonoid compound was selected from nomilin, deacetylnomilin, nomilin acid, deacetylnomilin acid glycoside, and gliquidone single administration group, nomilin single administration group, deacetylnomilin single administration group, nomilin acid single administered group, deacetylnomilin acid glycoside single administration group, and respective combination thereof with gliquidone administration groups were set.
Conditions for experimental feeding: as type II diabetes model mice, 6-week-old SPF-grade db/db mice were purchased from the Nanjing Model Biology Institute, and subjected to experimental feeding after 7 days of preliminary feeding. It should be noted that the conditions for raising the mice were as follows: the temperature was 23±1° C., the humidity was 55±10%, the lights were turned on between 7 am and 7 pm (the lights were turned off at other time), and the mice were allowed to freely take in water and feed. The experimental feed was mouse growth-stable feed (GB M2118), and the daily feeding and management of the animals were under the responsibility of the animal security department, which provided the animals with sufficient diet and fresh drinking water daily.
Experimental grouping: male db/db mice (20±2 g) were selected, 18 male mice in each group were tested, and drinking bottles were sterilized weekly. […]

In the case of `COc1ccc(Cl)cc1C(=O)NCCc1ccc(S(=O)(=O)NC(=O)NC2CCCCC2)cc1` [Glibenclamide, glibenclamide], the Blood glucose value [1] is reported as 18.3 ± 3.2 mmol/L.

In the case of `Cc1ccc(S(=O)(=O)NC(=O)NN2CC3CCCC3C2)cc1` (stereo not drawn) [Gliclazide, gliclazide], the Blood glucose value (db/db mice [2]) is reported as 11.5 ± 2.9 mmol/L.

`CCC1=C(C)CN(C(=O)NCCc2ccc(S(=O)(=O)NC(=O)N[C@H]3CC[C@H](C)CC3)cc2)C1=O` [Glimepiride, glimepiride] showed a Blood glucose value [3] of 10.4 ± 2.1 mmol/L.

With `Cc1cnc(C(=O)NCCc2ccc(S(=O)(=O)NC(=O)NC3CCCCC3)cc2)cn1` [Glipizide, glipizide] the Blood glucose value [4] was 14.5 ± 2.3 mmol/L.

Compound `COc1ccc2c(c1)C(=O)N(CCc1ccc(S(=O)(=O)NC(=O)NC3CCCCC3)cc1)C(=O)C2(C)C` [gliquidone] has an Insulin (db/db mice [5]; serum, ELISA, model group 10.56 ± 3.00, normal 1.05 ± 0.39) of 7.82 ± 1.52 pg/mL and a Blood glucose value (db/db mice [5]; 1 h after last administration, model group 23.9 ± 4.2, normal 6.0 ± 0.7) of 10.3 ± 2.1 mmol/L.
